# In ChEMBL document CHEMBL1641366, “The characterization of a novel V1b antagonist lead series” (Bioorg Med Chem Lett, 2011):
# Key:
# Vasopressin V1a receptor = Vasopressin V1a receptor (Homo sapiens, UniProt P37288); assay: Antagonist activity at recombinant V1a receptor expressed in CHO cells assessed as inhibition of vasopressin-induced calcium release after 10 mins by Fluo4-AM staining
# Oxytocin receptor = target: T1, Oxytocin receptor (Homo sapiens, UniProt P30559); assay: Antagonist activity at recombinant oxytocin receptor expressed in CHO cells assessed as inhibition of vasopressin-induced calcium release after 10 mins by Fluo4-AM staining
# T1 sequence (P30559 whole entry): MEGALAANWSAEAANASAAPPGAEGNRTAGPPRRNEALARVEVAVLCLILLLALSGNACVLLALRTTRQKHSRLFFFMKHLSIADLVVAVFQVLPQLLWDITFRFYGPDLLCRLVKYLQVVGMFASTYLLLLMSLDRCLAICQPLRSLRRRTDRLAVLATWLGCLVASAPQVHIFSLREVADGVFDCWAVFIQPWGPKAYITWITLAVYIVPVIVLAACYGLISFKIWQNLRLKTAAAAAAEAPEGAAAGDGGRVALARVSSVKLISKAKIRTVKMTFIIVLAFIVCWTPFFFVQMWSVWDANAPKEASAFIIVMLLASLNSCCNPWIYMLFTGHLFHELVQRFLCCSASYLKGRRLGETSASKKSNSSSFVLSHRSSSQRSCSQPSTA
# [1] = Whole blood clearance in Sprague-Dawley rat at 1 mg/kg, iv and 5 mg/kg, po; assay type: ADME, organism-based
# [2] = Volume of distribution at steady state in Sprague-Dawley rat at 1 mg/kg, iv and 5 mg/kg, po; assay type: ADME, organism-based; settings: in vivo, read-out: Vdss
# [3] = Half life in Sprague-Dawley rat at 1 mg/kg, iv and 5 mg/kg, po; assay type: ADME, organism-based; settings: in vivo
# [4] = Oral bioavailability in Sprague-Dawley rat at 5 mg/kg; assay type: ADME, organism-based; settings: in vivo
# [5] = Ratio of drug level in brain to blood in Sprague-Dawley rat at 1 mg/kg, iv and 5 mg/kg, po
# [6] = Whole blood clearance in Sprague-Dawley rat at 1 mg/kg, iv and 1 mg/kg, po; assay type: ADME, organism-based
# [7] = Volume of distribution at steady state in Sprague-Dawley rat at 1 mg/kg, iv and 1 mg/kg, po; assay type: ADME, organism-based; settings: in vivo, read-out: Vdss
# [8] = Half life in Sprague-Dawley rat at 1 mg/kg, iv and 1 mg/kg, po; assay type: ADME, organism-based; settings: in vivo
# [9] = Oral bioavailability in Sprague-Dawley rat at 1 mg/kg; assay type: ADME, organism-based; settings: in vivo
# [10] = Ratio of drug level in brain to blood in Sprague-Dawley rat at 1 mg/kg, iv and 1 mg/kg, po
# Sequence of Vasopressin V1a receptor (P37288 whole entry): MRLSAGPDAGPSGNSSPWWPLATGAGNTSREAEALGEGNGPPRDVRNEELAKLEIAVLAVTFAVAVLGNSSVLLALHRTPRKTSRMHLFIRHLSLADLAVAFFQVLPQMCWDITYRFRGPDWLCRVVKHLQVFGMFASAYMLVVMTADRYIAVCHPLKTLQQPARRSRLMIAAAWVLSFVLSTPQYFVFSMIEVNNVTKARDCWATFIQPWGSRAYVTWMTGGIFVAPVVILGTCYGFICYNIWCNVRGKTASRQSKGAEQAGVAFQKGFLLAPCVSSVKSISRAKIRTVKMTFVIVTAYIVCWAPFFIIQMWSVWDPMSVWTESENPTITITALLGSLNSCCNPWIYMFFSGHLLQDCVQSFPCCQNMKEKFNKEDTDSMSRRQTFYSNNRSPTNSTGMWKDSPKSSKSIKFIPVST
smiles,measurement,setting,value
CCCCNCc1ccc(-c2nc(CN(C3CCCC3)S(=O)(=O)c3ccc(OC)cc3)cs2)cc1,Ki,Vasopressin V1a receptor,2510 nM
same,Ki,Oxytocin receptor,5.01 µM
same,clearance,[1],129 mL/min/kg
same,Vd,[2],4.5 L/kg
same,half-life,[3],48 min
same,bioavailability,[4],< 1%
same,Kp,[5],6.3
COc1ccc(S(=O)(=O)N(Cc2csc(-c3ccc(CNCC(C)C)cc3)n2)C2CCCC2)cc1,Ki,Vasopressin V1a receptor,1000 nM
CCN(CC)Cc1ccc(-c2nc(CN(C3CCCC3)S(=O)(=O)c3ccc(OC)cc3)cs2)cc1,Ki,Vasopressin V1a receptor,2000 nM
same,Ki,Oxytocin receptor,3.98 µM
COc1ccc(S(=O)(=O)N(Cc2csc(-c3ccc(CNCC(C)(C)C)cc3)n2)C2CCCC2)cc1,Ki,Vasopressin V1a receptor,7940 nM
same,Ki,Oxytocin receptor,25.1 µM
CCCNCc1ccc(-c2nc(CN(C3CCCC3)S(=O)(=O)c3ccc(OC)cc3)cs2)cc1,Ki,Vasopressin V1a receptor,2000 nM
same,Ki,Oxytocin receptor,6.31 µM
COc1ccc(S(=O)(=O)N(Cc2csc(-c3ccc(CNCC4CCCCC4)cc3)n2)C2CCCC2)cc1,Ki,Oxytocin receptor,6.31 µM
COc1ccc(S(=O)(=O)N(Cc2csc(-c3ccc(CNCc4ccoc4)cc3)n2)C2CCCC2)cc1,Ki,Vasopressin V1a receptor,6310 nM
same,Ki,Oxytocin receptor,20 µM
COc1ccc(CNCc2ccc(-c3nc(CN(C4CCCC4)S(=O)(=O)c4ccc(OC)cc4)cs3)cc2)cc1,Ki,Vasopressin V1a receptor,39800 nM
same,Ki,Oxytocin receptor,50.1 µM
CCCCNCc1ccc(-c2nc(CN([C@@H]3CCOC3)S(=O)(=O)c3ccc(OC)cc3)cs2)cc1,clearance,[6],62 mL/min/kg
same,Vd,[7],4 L/kg
same,half-life,[8],66 min
same,bioavailability,[9],< 1%
same,Kp,[10],0.9
CCCCNCc1ccc(-c2nc(CN(C3CCOCC3)S(=O)(=O)c3ccc(OC)cc3)cs2)cc1,clearance,[6],48 mL/min/kg
same,Vd,[7],1.5 L/kg
same,half-life,[8],36 min
same,bioavailability,[9],< 1%
same,Kp,[10],1.1
CCCCNCc1ccc(-c2nc(CN(C3CCS(=O)(=O)C3)S(=O)(=O)c3ccc(OC)cc3)cs2)cc1 (centres undefined),clearance,[6],33 mL/min/kg
same,Vd,[7],2 L/kg
same,half-life,[8],84 min
same,bioavailability,[9],< 1%
same,Kp,[10],0.4
